# Experimental data taken from patent US11447460B2, “Compounds and compositions for treating conditions associated with NLRP activity” (Novartis AG, priority 2016, dated 2022).
# Tested on: IL-1β production in PMA-differentiated THP-1 cells
# Assay: IL-1β production in PMA-differentiated THP-1 cells stimulated with gramicidin (hTHP-1 assay, 2% bovine serum; Bioassays 1 and 2)
# Format: cell-based, human
# Settings: Homo sapiens, THP-1; hTHP-1 assay containing 2% bovine serum; Table 12, by Example #; read-out: Average IC50 of compounds in hTHP-1 assay
# Procedure, shortened: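 PMA-differentiated THP-1 cells in 2% FBS RPMI were pre-treated with compound for 1 h, then given gramicidin 5 μM for 2 h, and supernatants were assayed to give IC50. Protocol 1: PMA 10 μg/ml 24 h, 1×10^6 cells/ml, ELISA, 1% DMSO. Protocol 2: PMA 20 ng/ml 16-18 h, 50,000 cells/well, HTRF, 0.38% DMSO.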
row,Compound,IC50 [µM]
1,"CC(C)(O)c1cnc(S(=O)(=O)NC(=O)Cc2cc(C(F)(F)F)ccc2Cl)s1 [Example 87, 2-(2-chloro-5-(trifluoromethyl)phenyl)-N-(5-(2-hydroxypropan-2-yl)thiazol-2-ylsulfonyl)acetamide]",15 to 60
2,"COc1c(Cl)cc(Cl)cc1CC(=O)NS(=O)(=O)c1ncc(C(C)(C)O)s1 [Example 88, 2-(3,5-dichloro-2-methoxyphenyl)-N-(5-(2-hydroxypropan-2-yl)thiazol-2-ylsulfonyl)acetamide]",15 to 60
3,"CC(C)c1cc(F)cc(C(C)C)c1CC(=O)NS(=O)(=O)c1ncc(CO)s1 [Example 91, 2-(4-Fluoro-2,6-diisopropylphenyl)-N-(5-(hydroxymethyl)thiazol-2-ylsulfonyl)acetamide]",15 to 60
4,"CC(C)c1cc(F)cc(C(C)C)c1CC(=O)NS(=O)(=O)c1ncc(C(C)CO)s1 (stereo not shown) [Example 96, 2-(4-Fluoro-2,6-diisopropylphenyl)-N-(5-(1-hydroxypropan-2-yl)thiazol-2-ylsulfonyl)acetamide]",5 to 15
5,"CC(C)c1cc(F)cc(C(C)C)c1CC(=O)NS(=O)(=O)c1ncc(CCO)s1 [Example 97, 2-(4-fluoro-2,6-diisopropylphenyl)-N-(5-(2-hydroxyethyl)thiazol-2-ylsulfonyl)acetamide]",5 to 15

# Now from value to compound:
row,IC50 [µM],Compound
1,1 to 5,"CC(C)c1cc(F)cc(C(C)C)c1CC(=O)NS(=O)(=O)c1ncc(C(C)(C)O)s1 [Example 89, 2-(4-Fluoro-2,6-diisopropylphenyl)-N-(5-(2-hydroxypropan-2-yl)thiazol-2-ylsulfonyl)acetamide]"
2,1 to 5,"CC(C)c1cc(F)cc(C(C)C)c1CC(=O)NS(=O)(=O)c1ncc(C(C)O)s1 (stereo not shown) [Example 92, 2-(4-fluoro-2,6-diisopropylphenyl)-N-(5-(1-hydroxyethyl)thiazol-2-ylsulfonyl)acetamide]"
3,1 to 5,"CC(C)c1cc(C#N)cc(C(C)C)c1CC(=O)NS(=O)(=O)c1ncc(C(C)O)s1 (stereo not shown) [Example 93, 2-(4-cyano-2,6-diisopropylphenyl)-N-(5-(1-hydroxyethyl)thiazol-2-ylsulfonyl)acetamide]"
4,1 to 5,"CC(C)c1cc(F)cc(C(C)C)c1CC(=O)NS(=O)(=O)c1ccc(C(C)(C)O)c(CO)c1 [Example 94, 2-(4-fluoro-2,6-diisopropylphenyl)-N-(3-(hydroxymethyl)-4-(2-hydroxypropan-2-yl)phenylsulfonyl)acetamide]"
5,1 to 5,"CC(C)c1cc(C#N)cc(C(C)C)c1CC(=O)NS(=O)(=O)c1ccc(C(C)(C)O)c(CO)c1 [Example 95, 2-(4-cyano-2,6-diisopropylphenyl)-N-(3-(hydroxymethyl)-4-(2-hydroxypropan-2-yl)phenylsulfonyl)acetamide]"
